We go through 2 compounds from patent US6677309B1, “Anti-cancer drug aldehyde conjugate drugs with enhanced cytotoxicity compounds, compositions and methods” (University Technology Corporation, priority 1997, dated 2004).

Like-named read-outs stand apart in the source and are kept apart here.

Data set [1] can be described thus: Stability in DMSO and DMSO/water, NMR or HPLC. Format: physicochemical. To be noted: HPLC. On the procedure: Crystalline dimeric formaldehyde conjugate of daunorubicin (2.8 mg, 2.6 μmol) was dissolved in 500 μL of DMSO-d6 (stored over 3 A molecular sieves) and analyzed by 400 MHz, ^1H NMR. […] Upon addition of 25 μL of D2O to the 500 μL DMSO-d6 sample, the dimeric formaldehyde conjugate of daunorubicin reacted over a 24 h period to form an equilibrium mixture consisting of 67% dimeric formaldehyde conjugate of daunorubicin and 32% of an intermediate. Because of the complexity of the spectrum, a structure could not be assigned to the intermediate; however, the intermediate appeared to have an oxazolidine ring. Upon addition of 3 equiv of hydrochloric acid in 130 μL of deuterium oxide, hydrolysis to daunorubicin-HCl was complete. The hydrochloric acid solution was prepared by the addition of 10 μL of concentrated HCl to 990 μL of D2O. The formaldehyde released from the dimeric formaldehyde conjugate of daunorubicin was detected as its hydrate. The final product was identified as daunorubicin by comparison of the NMR spectrum with that of a sample of daunorubicin plus 3 equiv of HCl. Further, the final product was isolated by removal of all volatile components under vacuum (0.1 Torr), and its ^1H NMR spectrum was identical to that of daunorubicin-HCl.
Amorphous dimeric formaldehyde conjugate of daunorubicin, when worked up in methylene chloride, was stable in DMSO for at least 4 days. It hydrolyzed with added D2O and hydrochloric acid in a manner similar to that of the crystalline material. When worked up in chloroform, amorphous dimeric formaldehyde conjugate of daunorubicin had less stability in DMSO, presumably due to traces of HCl from the chloroform.
A 1.3 mg sample of N-acetyl-3′-N,4′-O-methylenedaunorubicin was dissolved in […] of DMSO and analyzed over time by HPLC. […] At this time, […] of water was added to the DMSO/N-acetyl monomeric formaldehyde conjugate of daunorubicin solution, establishing a 50:50 DMSO:water mixture (v/v). In this solution, the N-acetyl-3′-N,4′-O-methylenedaunorubicin remained 91% intact (9% degradation to daunorubicin) over a period of 6 days, based upon the HPLC analysis.
A pH 6 triethyl ammonium acetate solution containing 13.1 μmol of epidoxorubicin-HCl and 6.6 mmol of […] was allowed to react in the dark at 25° C. for 30 min. The mixture was then extracted with chloroform with vigorous stirring for 20 min. The chloroform solution was dried over sodium sulfate and the chloroform removed by rotary evaporation. The resulting dry solid was redissolved in 1.0 mL of chloroform. To this was added 10 mL of n-hexane. After 2 days, a large amount of precipitate had formed, which was washed with 3×5 mL of n-hexane, followed by 4×1 mL of water.
The sample was maintained at ambient temperature for 2 h; after this period no change in the spectrum was observed. […] A stock 122 mM solution of HCl in D2O was prepared by adding concentrated hydrochloric acid to D2O. […] Complete hydrolysis occurred upon addition of ca. 2-3 equiv of HCl. A similar experiment was performed using HCl in H2O. […] This solution was incubated at 37° C. for 24 h prior to NMR analysis.

In a further data set the test system is MCF-7 cells. Description: In vitro cytotoxicity, colony formation by crystal violet assay, MCF-7. On the procedure: (§1) The term IC50 as used herein refers to the concentration of drug which inhibits cell growth by 50%, i.e., 50% of cells are viable at the IC50 concentration relative to a no-drug control.
(§2) Cells were incubated with drug for 3 h in RPMI (Roswell Park Memorial Institute) 1640 media containing 10% fetal bovine serum and 1% DMSO. Plates, were developed using the crystal violet assay. […] In all cases percent survival was determined by the extent of colony formation six days after drug treatment.
(§3) All tissue culture materials were obtained from Gibco Life Technologies (Grand Island, N.Y.) unless otherwise stated. MCF-7 breast cancer cells were obtained from American Type Culture Collection (Rockville, Md.). […] Both cell lines were maintained in vitro by serial culture in phenol red-free RPMI Media 1640 supplemented with 10% fetal bovine serum (Gemini Bio-Products, Calbasas, Calif.), L-glutamine (2 mM), HEPES buffer (10 mM), penicillin (100 units/mL), and streptomycin (100 μg/mL). […] Cells were maintained at 37° C. in a humidified atmosphere of 5% CO2 and 95% air.
(§4) Cells were dissociated with trypsin-EDTA, counted, and suspended in growth media to a concentration of 5×10^3 cells/mL. Cell suspensions were dispensed in 200 μL aliquots into 96-well tissue culture plates. Plates were then incubated for 24 h at 37° C. in a humidified atmosphere of 5% CO2 and 95% air. The media was replaced with 180 μL of growth media prior to addition of the cytotoxic agents.
(§5) Concentrations were then corrected by measuring the solution absorbance at 480 nm (ε=11,500/mole anthracycline). The solutions were then serially diluted in DMSO to give a series of 100× working concentration solutions. For each concentration, the 100× solution was diluted 1:10 in serum-free RPMI Media 1640. 20 μL of the resulting […] solution was immediately added to the appropriate lane. Additionally, one lane was treated with 20 μL of 10% DMSO in serum-free RPMI (no drug) and one lane replaced with 200 μL of 1.5 M Tris buffer (no cells). The cells were incubated at 37° C. for 3 h. The drug solutions were removed and 200 μL of fresh growth media was added to each well.
(§6) The extent of colony formation was determined by use of a crystal violet staining assay (Gilles, R. J. et al. (1986), “Determination of cell number in monolayer cultures,” Anal. Biochem. 159:109-113; Reile, H. et al. (1990), “Computerized determination of growth kinetic curves and doubling times from cells in microcultures,” Anal. Biochem. 187:262-267). […] The cells were then stained with 75 μL of 0.1% crystal violet in deionized water for 30 min. […] The plates were blotted dry and 200 μL of 70% ethanol in water was added to each well to solublize the dye. The plates were stored at 4° C. until solubilization was complete (about 4 h). The optical density of each well was measured on an ELISA plate reader at 588 nm. Relative colony sizes were determined by comparison of the drug treated lanes to the control lanes.
(§7) MCF-7 breast cancer cells were obtained from American Type Culture Collection (Rockville, Md.). MCF-7/ADR adriamycin resistant breast cancer cells were a gift of Dr. William W. Wells (Michigan State University). Both cell lines were maintained in vitro by serial culture in phenol red-free RPMI Media 1640 supplemented with 10% fetal bovine serum (Gemini Bio-Products, Calbasas, Calif.), L-glutamine (2 mM), HEPES buffer ([…]), penicillin (100 units/mL), and streptomycin (100 μg/mL). […] Cells were maintained at 37° C. in a humidified atmosphere of 5% CO2 and 95% air.
1640 media containing 10% fetal bovine serum. The resulting 90% media/10% DMSO solutions (v/v) were incubated at 37° C. for 6h.

Another data set deals with LNCaP. Description: Prostate cancer cell cytotoxicity, crystal violet assay, LNCaP. To be noted: Homo sapiens, LNCaP. It counts as cell-based, human. On the procedure: (§8) Toxicity to the three prostate cancer cell lines, LNCaP, DU-145, and PC-3 were measured in two different media, RPMI-1640 and DMEM (Dulbecco's Modified Eagle Medium), both supplemented with 10% fetal bovine serum.
(§9) Cell lines were maintained in vitro in RPMI 1640 media or DMEM, each supplemented with 10% fetal bovine serum, 2 mM L-glutamine, 10 mM HEPES buffer, penicillin (100 units/mL) and streptomycin (100 μg/mL).
(§10) Cells were dissociated with trypsin/EDTA, counted, and suspended in growth media (RPMI or DMEM) to a concentration of 5.6×10^3 cells/mL. Cell suspensions were dispensed in 180 μL aliquots into 96-well tissue culture plates. […] Each 100× solution was diluted 10× in growth media (RPMI or DMEM), and a 20 μL aliquot of the resulting 10× solution was immediately (<10s) added to-the appropriate lane. Additionally, one lane was treated with 20 μL of 10% DMSO in growth media (no drug) and one lane was treated with 200 μL of 1.5 M Tris buffer (no cells). The cells were incubated with the drugs for 3 h at 37° C. The drug solutions were then removed and replaced with 200 μL of fresh media. The cells were incubated for 4 days (7 days for PC-3 cells in DMEM) at 37° C. in a humidified atmosphere of 5% CO2 and 95% air. Cell survival was determined using a crystal violet assay as described earlier (Fenick, D. J. et al (1997) J. Med. Chem. 40: 2452-2461).

Another data set has as its system DU-145. Briefly: Prostate cancer cell cytotoxicity, crystal violet assay, DU-145. Conditions: Homo sapiens. It counts as cell-based, human. On the procedure:
as §8, §9, §10

A further data set deals with MCF-7/ADR cells. Description: In vitro cytotoxicity, colony formation by crystal violet assay, MCF-7/ADR. The protocol:
as §1, §2, §3, §4, §5, §6, §7
These were then diluted 10× with autoclaved Millipore water.

In the next data set the test system is PC-3. Description: Prostate cancer cell cytotoxicity, crystal violet assay, PC-3. Format: cell-based, human. Conditions: Homo sapiens. The protocol: as §8, §9, §10
Data set [2] is described as follows: Hydrolysis in aqueous phosphate buffer, HPLC. Format: physicochemical. Conditions: serum; read-out: estimated half-life. On the procedure: See Example 16. […] The DMSO was present to increase solubility.
Second, the kinetics of hydrolysis were measured in pH 6.0 phosphate buffer.
A 960 μL solution of pH 7.3 phosphate buffer was heated to 37° C. […] No change in the chromatography was observed if pH, 7.3 phosphate buffer was used as the eluent in place of pH 7.4 TEAA buffer.

Setting [3] is: 50:50 DMSO:water (v/v), over 6 days.
The mark [4] stands for this setting: relative to the respective parent drug.

Consider “N-acetyl-3′-N,4′-O-methylenedaunorubicin”, for which, in data set [1] (setting [3]), the degradation to daunorubicin came to 9% and the fraction remaining intact worked out at 91%. Besides, the “degradation in DMSO solution” value in data set [1] (DMSO, after 2 h) is listed as “no degradation”.
In the case of `COc1cccc2c1C(=O)c1c(O)c3c(c(O)c1C2=O)CC(O)(C(=O)CO)CC3OC1CC2C(OCN2CN2CO[C@@H]3C(C)O[C@H](OC4CC(O)(C(=O)CO)Cc5c(O)c6c(c(O)c54)C(=O)c4c(OC)cccc4C6=O)CC32)C(C)O1` (stereo partly drawn) [DOXF, bis(3′-N-(3′-N,4′-O-methylenedoxorubicinyl))methane], the IC50 is 1 nM in the data set on MCF-7 cells (Homo sapiens, MCF7, read-out: IC50 Values, MCF-7); 0.5 nM in the data set on LNCaP (read-out: IC50 Values, LNCaP/DMEM); 0.5 nM with LNCaP (read-out: IC50 Values, LNCaP/RPMI-1640); 1.5 nM in the data set on DU-145 (DU-145, read-out: IC50 Values, DU-145/DMEM); 2 nM in the data set with DU-145 (DU-145, read-out: IC50 Values, DU-145/RPMI-1640); 0.5 nM in the data set on MCF-7/ADR cells (Homo sapiens, NCI/ADR-RES, read-out: IC50 Values, MCF-7-ADR). Further, the IC50 was 4.5 nM in the data set on PC-3 (PC-3, read-out: IC50 Values, PC-3/DMEM) and 0.5 nM in the data set on PC-3 (PC-3, read-out: IC50 Values, PC-3/RPMI-1640). Moreover, the “times more cytotoxic against the MCF-7 cell line than the parent drug” value in the data set on MCF-7 cells (relative to daunorubicin and doxorubicin, respectively) is 150 times. For the same compound, the “fold more toxic to MCF-7 cells than the parent drug” value in the data set with MCF-7 cells (setting [4]) was found to be 150 fold. The “fold higher cytotoxicity against MCF-7/ADR cells relative to the parent drug” value with MCF-7/ADR cells (setting [4]) is 10,000 fold. Moreover, the half-life in data set [2] was less than 10 min.
